This passage reports IC50 results from patent US8524911B2, “3-arylamino pyridine derivatives” (Merck Serono SA, priority 2004, dated 2013).

Each structure is given as a SMILES string.

Assay [1] has as its target human MEK1 (Homo sapiens, UniProt Q02750). In words: MEK-1 Enzyme Assay (LANCE-HTRF). In kind it is biochemical. Conditions: 100 nM MEK1, 15 μM ATP, 300 nM ERK2, two hours; read-out: MEK inhibition. On the procedure: Assay 1: MEK-1 Enzyme Assay (LANCE-HTRF)
The activity of the compounds of the present invitation may be determined by the following procedure; Inhibition of human MEK1 kinase activity was monitored with a homogenous, fluorescence based assay. The assay uses time resolved fluorescence resonance energy transfer to probe for phosphorylation of ERK1 by MEK1. The assay is carried out in low volume 96 well microtiterplates. […] After two hours, 5 nM Europium-anti-PY20 (Perkin Elmer) and 50 nM Anti-GST-Allophycocyanin (CisBio) in buffer containing 50 mM EDTA and 0.05% BSA are added and the reaction incubated for one hour in the dark. Time-resolved fluorescence is measured using a LJL-Analyst (Molecular Devices) with an excitation wavelength of 340 nm and an emission wavelength of 665 nm. The final concentration of DMSO is 2%.
For orientation: In TR-FRET formats the signal depends on donor and acceptor labels being close together.

For assay [2], the system named is human melanoma A375 cells. Kind of assay: Tumor cell proliferation assay (ATP Lite), A375. In kind it is cell-based. As to conditions: A-375, 96 h, 4 days. On the procedure:
(§1) Assay 2: Tumor Cell Proliferation Assays (ATP Lite)
(§2) Murine colon C26, human melanoma A375 and MeI5 or human pancreatic MiaPaCa-2 cells were plated in 96 well Corning white plates (1500 cells/well for C26, and 2000 cells/well for A375, and MiaPaCa-2) and cultured overnight at 37° C. in 5% CO2. Inhibitors were serially diluted in 100% DMSO and subsequently added to cells to reach a final concentration of 0.25% DMSO. The cells were incubated for 4 days in the presence of test compounds in cell growth media (DMEM with 10% fetal bovine serum, 2 mM glutamine for C26, and MiaPaCa-2, and RPMI with 10% fetal bovine serum, 2 mM glutamine for A375). Cell proliferation was quantitated using the ATP lite cell proliferation kit (Packard). Columns 4-6 show the concentration of compounds required to induce 50% cell death (IC50 in μM) of […]. With “+” meaning 3 μM<IC50≦10 μM and “++” IC50≦3 μM and “n.d.” means not determined. Few compounds were also tested on human melanoma cell MeI5.

Assay [3] relates to Murine colon C26 cells. In words: Tumor cell proliferation assay (ATP Lite), C26. As to conditions: Mus musculus, 96 h, 4 days. Type of assay: cell-based. The protocol: as §1, §2

human MEK1, sequence (Q02750 whole entry): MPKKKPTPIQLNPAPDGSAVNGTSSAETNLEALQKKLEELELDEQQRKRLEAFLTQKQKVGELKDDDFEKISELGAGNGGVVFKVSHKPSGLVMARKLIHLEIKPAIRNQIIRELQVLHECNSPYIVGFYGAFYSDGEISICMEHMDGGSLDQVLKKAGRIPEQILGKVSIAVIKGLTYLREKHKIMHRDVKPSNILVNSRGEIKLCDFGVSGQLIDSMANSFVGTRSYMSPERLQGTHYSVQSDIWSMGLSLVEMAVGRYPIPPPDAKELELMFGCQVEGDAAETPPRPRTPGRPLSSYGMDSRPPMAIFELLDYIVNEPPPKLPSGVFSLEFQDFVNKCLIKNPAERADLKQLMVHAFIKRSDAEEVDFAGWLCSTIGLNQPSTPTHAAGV

In the case of `O=C(NC1(CO)CCCC1)c1ccncc1Nc1ccc(I)cc1F` [Example 110, 3-(2-Fluoro-4-iodo-phenylamino)-N-(1-hydroxymethyl-cyclo-pentyl)-isonicotinamide], the IC50 in assay [1] is less than 1000 nM. Still for that read-out and setting: the result for `O=C(O)c1ccnc(Cl)c1Nc1ccc(Br)cc1F` [Example 125, 3-(4-Bromo-2-fluoro-phenylamino)-2-chloro-isonicotinic acid] reads less than 1000 nM. The same measure, in the same setting: the result for `Cc1nccc(C(=O)O)c1Nc1ccc(I)cc1F` [Example 95, 3-(2-Fluoro-4-iodo-phenylamino)-2-methyl-isonicotinic acid] reads less than 1000 nM; that for `CC1(C)OC[C@H](CONC(=O)c2ccnc(Cl)c2Nc2ccc(I)cc2F)O1` [Example 38, 2-Chloro-N-{[(4R)-2,2-dimethyl-1,3-dioxolan-4-yl]methoxy}-3-(2-fluoro-4-iodo-phenylamino)-isonicotinamide], 1000 to 10000 nM; that for `O=c1[nH]nc(-c2ccncc2Nc2ccc(Br)cc2F)o1` [Example 126, 5-[3-(4-Bromo-2-fluoro-phenylamino)-pyridin-4-yl]-3H-[1,3,4]oxadiazol-2-one], 1000 to 10000 nM. Regarding `O=C(NOC1CCCCO1)c1ccncc1Nc1ccc(I)cc1F` (stereo not shown) [Example 84, 3-[(2-fluoro-4-iodophenyl)amino]-N-(tetrahydro-2H-pyran-2-yloxy)-isonicotin-amide], the IC50 in assay [2] is not above 3 µM; in assay [1] it was less than 1000 nM; in assay [3] it was 3 to 10 µM. For `C#Cc1ccc(Nc2cnccc2C(=O)NOC[C@H](O)CO)c(Cl)c1` [Example 54, 3-(2-Chloro-4-ethynyl-phenylamino)-N-(2,3-dihydroxy-propoxy)-isonicotinamide], the values for the IC50 in assay [2] and in assay [1] were 3 to 10 µM and 1000 to 10000 nM, respectively. In the case of `CN(C)c1ccc(-c2cc(C(=O)O)c(Nc3ccc(I)cc3F)cn2)cc1` [Example 57, 2-[4-(dimethylamino)phenyl]-5-[(2-fluoro-4-iodophenyl)amino]-isonicotinic acid], the IC50 in assay [1] fell in the range of 1000 to 10000 nM.

Take `O=C(O)c1ccncc1Nc1ccc(Cl)cc1Cl` [Example 1, 3-[(2,4-Dichlorophenyl)amino]isonicotinic acid]: in assay [1], the IC50 was less than 1000 nM. On the same count and under the same terms, with `O=C(N[C@H]1CCCC[C@@H]1O)c1ccncc1Nc1ccc(I)cc1F` (relative stereo) [Example 113, 3-(2-Fluoro-4-iodo-phenylamino)-N-(trans-2-hydroxy-cyclohexyl)-isonicotinamide] the figure was less than 1000 nM; with `COc1ccc(-c2cc(C(=O)O)c(Nc3ccc(I)cc3F)cn2)cc1` [Example 52, 5-[(2-fluoro-4-iodophenyl)amino]-2-(4-methoxyphenyl)isonicotinic acid], 1000 to 10000 nM. On the same count and under the same terms, the result for `CC1(C)OC[C@H](CONC(=O)c2cc[n+]([O-])cc2Nc2ccc(I)cc2F)O1` [Example 89, N-(2,2-Dimethyl-[1,3]dioxolan-4-ylmethoxy)-3-(2-fluoro-4-iodo-phenylamino)-1-oxy-isonicotinamide] reads 1000 to 10000 nM; that for `O=C(NCCCN1CCNCC1)c1ccncc1Nc1ccc(I)cc1F` [Example 116, 3-(2-Fluoro-4-iodo-phenylamino)-N-(3-piperazin-1-yl-propyl)-isonicotinamide], less than 1000 nM.

With `O=C(O)c1ccncc1Nc1ccc(SC(F)(F)F)cc1` [Example 119, 3-(4-Trifluoromethylsulfanyl-phenylamino)-isonicotinic acid], the IC50 in assay [1] fell in the range of 1000 to 10000 nM. Still for that read-out and setting: with `Cc1cc(I)ccc1Nc1cnccc1C(=O)O` [Example 3, 3-[(4-Iodo-2-methylphenyl)amino]isonicotinic acid] the figure was less than 1000 nM. Still for that read-out and setting: the result for `COc1cccc(NC(=O)c2ccncc2Nc2ccc(I)cc2F)c1` [Example 104, 3-[(2-fluoro-4-iodophenyl)amino]-N-(3-methoxyphenyl)-isonicotinamide] reads less than 1000 nM. For the compound `CC1(C)OC[C@@H](CONC(=O)c2ccncc2Nc2ccc(I)cc2F)O1` [Example 63, N-{[(4S)-2,2-dimethyl-1,3-dioxolan-4-yl]methoxy}-3-[(2-fluoro-4-iodophenyl)amino]isonicotinamide], the results for the IC50 in assay [2] and in assay [1] were not above 3 µM and less than 1000 nM, respectively. `O=C(NCc1cccc(O)c1)c1ccncc1Nc1ccc(I)cc1F` [Example 106, 3-[(2-fluoro-4-iodophenyl)amino]-N-(3-hydroxybenzyl)-isonicotinamide]: the IC50 in assay [1] is less than 1000 nM.

As for `CCC(CO)(CO)NC(=O)c1ccncc1Nc1ccc(I)cc1F` [Example 114, N-(1,1-Bis-hydroxymethyl-propyl)-3-(2-fluoro-4-iodo-phenyl-amino)-isonicotin-amide], the IC50 in assay [1] was less than 1000 nM. Still for that read-out and setting: the result for `O=C(NOCc1c(F)c(F)c(F)c(F)c1F)c1ccncc1Nc1ccc(I)cc1F` [Example 103, 3-[(2-fluoro-4-iodophenyl)amino]-N-[(pentafluorobenzyl)oxy]-isonicotinamide] reads less than 1000 nM. As for `O=C(NCc1cccc(I)c1)c1ccncc1Nc1ccc(I)cc1F` [Example 94, 3-[(2-fluoro-4-iodophenyl)amino]-N-(3-iodobenzyl)isonicotin-amide], the results for the IC50 in assay [2] and in assay [1] were 3 to 10 µM and less than 1000 nM, respectively. Regarding `CCOC(CCCNC(=O)c1ccncc1Nc1ccc(I)cc1F)OCC` [Example 107, N-(4,4-diethoxybutyl)-3-[(2-fluoro-4-iodophenyl)amino]-isonicotinamide], the IC50 in assay [1] was less than 1000 nM.

As for `NC(=O)[C@H](CO)NC(=O)c1ccncc1Nc1ccc(I)cc1F` [Example 112, N-(1-(S)-Carbamoyl-2-hydroxy-ethyl)-3-(2-fluoro-4-iodo-phenylamino)-isonicotinamide], the IC50 in assay [1] is less than 1000 nM. Turning to `O=C(NCc1ccc(F)cc1)c1ccncc1Nc1ccc(I)cc1F` [Example 108, N-(4-Fluoro-benzyl)-3-(2-fluoro-4-iodo-phenylamino)-iso-nicotinamide], the IC50 in assay [1] was less than 1000 nM.

As to `CC(C)CONC(=O)c1ccncc1Nc1ccc(I)cc1Cl` [Example 78], the results for the IC50 in assay [2], in assay [1] and in assay [3] were not above 3 µM, less than 1000 nM and 3 to 10 µM, respectively.

Turning to `Cc1cc(Br)ccc1Nc1cnccc1C(=O)O` [Example 2, 3-[(4-Bromo-2-methylphenyl)amino]isonicotinic acid], in assay [1], the IC50 was less than 1000 nM. On the same count and under the same terms, the result for `O=C(NC1CCc2ccccc21)c1ccncc1Nc1ccc(I)cc1F` (stereo not shown) [Example 59, N-(2,3-dihydro-1H-inden-1-yl)-3-[(2-fluoro-4-iodophenyl)amino]-isonicotinamide] reads 1000 to 10000 nM. For the compound `O=C(NO)c1ccncc1Nc1ccc(I)cc1F` [Example 66, 3-[(2-fluoro-4-iodophenyl)amino]-N-hydroxyisonicotinamide], the IC50 is not above 3 µM in assay [2] and less than 1000 nM in assay [1]. With `O=C(O)c1ccncc1Nc1ccc(I)cc1` [Example 73, 3-(4-iodo-phenylamino)-isonicotinic acid], the IC50 in assay [1] is less than 1000 nM. Still for that read-out and setting: with `O=C(NCc1cc(F)cc(C(F)(F)F)c1)c1ccncc1Nc1ccc(I)cc1F` [Example 105, 3-[(2-fluoro-4-iodophenyl)amino]-N-[3-fluoro-5-(trifluoromethyl)-benzyl]isonicotinamide] the figure was less than 1000 nM. As to `CC1(C)OC[C@H](CONC(=O)c2cc(Br)ncc2Nc2ccc(I)cc2F)O1` [Example 69, 2-bromo-N-{[(4R)-2,2-dimethyl-1,3-dioxolan-4-yl]methoxy}-5-[(2-fluoro-4-iodophenyl)amino]isonicotinamide], the values for the IC50 in assay [2], in assay [1] and in assay [3] were not above 3 µM, less than 1000 nM and 3 to 10 µM, respectively. Consider `CCONC(=O)c1cc[n+]([O-])cc1Nc1ccc(Br)cc1C` [Example 6, 3-[(4-Bromo-2-methylphenyl)amino]-N-ethoxyisonicotinamide 1-oxide], for which the IC50 in assay [1] lay within 1000 to 10000 nM. For `COc1ccc(Nc2cnccc2C(=O)O)cc1` [Example 118, 3-(4-Methoxy-phenylamino)-isonicotinic acid], the IC50 in assay [1] was in the range of 1000 to 10000 nM. For the compound `CN(CCO)C(=O)c1ccncc1Nc1ccc(I)cc1F` [Example 37], the IC50 in assay [1] is less than 1000 nM. Same read-out and setting: the result for `Cc1cc(C(=O)O)c(Nc2ccc(I)cc2F)cn1` [Example 111, 5-[(2-fluoro-4-iodophenyl)amino]-2-methylisonicotinic acid] reads less than 1000 nM. Same read-out and setting: with `CCONC(=O)c1ccncc1Nc1ccc(Br)cc1F` [Example 121, 3-[(4-Bromo-2-fluorophenyl)amino]-N-ethoxyisonicotinamide] the figure was less than 1000 nM. For the compound `O=C(NC1CCCCC1)c1ccncc1Nc1ccc(I)cc1F` [Example 61, N-cyclohexyl-3-[(2-fluoro-4-iodophenyl)amino]isonicotinamide], the IC50 is 3 to 10 µM in assay [2] and less than 1000 nM in assay [1]. In the case of `O=C(NCC(F)(F)F)c1ccncc1Nc1ccc(I)cc1F` [Example 109, 3-(2-Fluoro-4-iodo-phenylamino)-N-(2,2,2-trifluoro-ethyl)-isonicotinamide], the IC50 in assay [1] is less than 1000 nM.
